Test results reported in article PMC11822212, “High-throughput screening identifies Aurora kinase B as a critical therapeutic target for Merkel cell carcinoma” (Nature Communications, 2025).

Tests used:
[1] = tested on: MCC13 cells (VN-MCC); assay: qHTS cell viability (CellTiter-Glo, 72 h; primary and follow-up small molecule screen); assay type: cell-based, human
[2] = tested on: NIH-3T3 cells; assay: qHTS cell viability (CellTiter-Glo, 72 h; primary screen), control cell line; assay type: cell-based, mouse
[3] = tested on: control cell lines (HACAT, HEK293T, CRL-7250, NIH-3T3); assay: qHTS cell viability, control cell lines as a group (mean AUC, Control.avg); assay type: cell-based; conditions: mean AUC of control cell lines
[4] = tested on: VP-MCC cell lines (WAGA, MKL-1, MKL-2); assay: qHTS cell viability, VP-MCC cell lines as a group (mean AUC, VP.MCC.avg); assay type: cell-based, human; conditions: for VP-MCC_Avg_AUC: mean AUC of VP-MCC cell lines
[5] = tested on: UISO cells (VN-MCC); assay: qHTS cell viability (CellTiter-Glo, 72 h; primary and follow-up small molecule screen); assay type: cell-based, human
[6] = tested on: HACAT cells; assay: qHTS cell viability (CellTiter-Glo, 72 h; primary screen), control cell line; assay type: cell-based, human
[7] = tested on: MCC26 cells (VN-MCC); assay: qHTS cell viability (CellTiter-Glo, 72 h; primary and follow-up small molecule screen); assay type: cell-based, human
[8] = tested on: MKL-1 cells (VP-MCC); assay: as above; assay type: cell-based, human
[9] = tested on: VN-MCC cell lines (MCC13, MCC26, UISO); assay: qHTS cell viability, VN-MCC cell lines as a group (mean AUC, VN.MCC.avg); assay type: cell-based, human; conditions: for VN-MCC_Avg_AUC: mean AUC of VN-MCC cell lines
[10] = tested on: MCC cell lines (WAGA, MKL-1, MKL-2, MCC13, MCC26, UISO); assay: qHTS cell viability, all six MCC cell lines as a group (mean AUC, MCC.avg); assay type: cell-based, human
[11] = tested on: CRL-7250 cells; assay: qHTS cell viability (CellTiter-Glo, 72 h; primary screen), control cell line; assay type: cell-based
[12] = tested on: MKL-2 cells (VP-MCC); assay: qHTS cell viability (CellTiter-Glo, 72 h; primary and follow-up small molecule screen); assay type: cell-based, human
[13] = tested on: WAGA cells (VP-MCC); assay: as above; assay type: cell-based, human
[14] = tested on: HEK293T cells; assay: qHTS cell viability (CellTiter-Glo, 72 h; primary screen), control cell line; assay type: cell-based, human
[15] = tested on: six MCC cell lines and four control cell lines; assay: qHTS cell viability, all 10 cell lines screened; assay type: cell-based
[16] = NPC library, qHTS dose-response AUC, MCC13
[17] = NPC library, qHTS dose-response AUC, NIH3T3 control
[18] = NPC library, qHTS dose-response AUC, UISO
[19] = NPC library, qHTS dose-response AUC, HACAT control
[20] = NPC library, qHTS dose-response AUC, MKL1
[21] = NPC library, mean AUC of six MCC cell lines
[22] = NPC library, qHTS dose-response AUC, CRL7250 control
[23] = NPC library, qHTS dose-response AUC, MKL2
[24] = NPC library, qHTS dose-response AUC, WAGA
[25] = NPC library, 8-point DRC, area under dose-response curve
[26] = NPC library, 8-point DRC, control cell line
[27] = MIPE library, 11-point DRC, sheet S2E
[28] = MIPE library, 11-point DRC, control cell line, sheet S2E

N=C(N)NC(=O)c1nc(Cl)c(N)nc1N [Amiloride]
MCC13_AUC [1, 16]: 460.482
NIH3T3_AUC [2, 17]: 492.231
Control_Avg_AUC ([3]; NPC library): 489.528
VP-MCC_Avg_AUC ([4]; NPC library): 428.06
Control-VP-MCC ([4]; NPC library, therapeutic window: Control avg AUC minus VP-MCC avg AUC): 61.468
UISO_AUC [5, 18]: 438.294
HACAT_AUC [6, 19]: 483.146
MCC26_AUC ([7]; NPC library; qHTS dose-response AUC, MCC26): 436.049
MKL1_AUC [8, 20]: 439.734
VN-MCC_Avg_AUC ([9]; NPC library): 444.942
Control-VN-MCC ([9]; NPC library, therapeutic window: Control avg AUC minus VN-MCC avg AUC): 44.5863
MCC_Avg_AUC [10, 21]: 436.501
CRL7250_AUC [11, 22]: 484.959
MKL2_AUC [12, 23]: 417.455
WAGA_AUC [13, 24]: 426.991
HEK293T_AUC ([14]; NPC library; qHTS dose-response AUC, HEK293T control): 497.776
Control-MCC ([15]; NPC library, therapeutic window: Control avg AUC minus MCC avg AUC): 53.0271

Nc1ccc(C(=O)NCC(=O)O)cc1 [Aminohippuric acid]
MCC13_AUC [1, 25]: 391.573
MCC13_AUC [1, 16]: 391.574
MCC13_AUC ([1]; area under the dose-response curve, MCC13 cells, AUC<450 = reduced viability): 391.574
NIH3T3_AUC [2, 26]: 454.303
NIH3T3_AUC [2, 17]: 454.303
NIH3T3_AUC ([2]; area under the dose-response curve, NIH3T3 control cells, AUC<450 = reduced viability): 454.303
Control_Avg_AUC ([3]; NPC library): 470.131
Control-VP-MCC ([4]; Control AUC minus VP-MCC AUC): 53.2142
Control-VP-MCC ([4]; NPC library, Control AUC minus VP-MCC AUC (therapeutic window)): 53.2142
VP-MCC_Avg_AUC ([4]; NPC library): 416.917
UISO_AUC [5, 25]: 434.505
UISO_AUC [5, 18]: 434.505
UISO_AUC ([5]; area under the dose-response curve, UISO cells, AUC<450 = reduced viability): 434.505
HACAT_AUC [6, 26]: 481.404
HACAT_AUC [6, 19]: 481.404
HACAT_AUC ([6]; area under the dose-response curve, HACAT control cells, AUC<450 = reduced viability): 481.404
MCC26_AUC [7, 25]: 410.554
MCC26_AUC ([7]; NPC library, qHTS dose-response AUC, MCC26): 410.554
MCC26_AUC ([7]; area under the dose-response curve, MCC26 cells; AUC<450 = reduced viability): 410.554
MKL1_AUC [8, 25]: 395.372
MKL1_AUC [8, 20]: 395.372
MKL1_AUC ([8]; {}): 395.372
Control-VN-MCC ([9]; Control AUC minus VN-MCC AUC): 57.9205
Control-VN-MCC ([9]; NPC library, Control AUC minus VN-MCC AUC (therapeutic window)): 57.9205
VN-MCC_Avg_AUC ([9]; NPC library): 412.211
MCC_Avg_AUC ([10]; NPC library, mean AUC of all 6 MCC cell lines): 414.564
MCC_Avg_AUC [10, 21]: 414.564
CRL7250_AUC [11, 26]: 477.44
CRL7250_AUC [11, 22]: 477.44
CRL7250_AUC ([11]; area under the dose-response curve, CRL7250 control cells, AUC<450 = reduced viability): 477.44
MKL2_AUC [12, 25]: 407.303
MKL2_AUC [12, 23]: 407.303
MKL2_AUC ([12]; area under the dose-response curve, MKL-2 cells, AUC<450 = reduced viability): 407.303
WAGA_AUC [13, 25]: 448.077
WAGA_AUC [13, 24]: 448.077
WAGA_AUC ([13]; area under the dose-response curve, WAGA cells, AUC<450 = reduced viability): 448.077
HEK293T_AUC [14, 26]: 467.378
HEK293T_AUC ([14]; NPC library, qHTS dose-response AUC, HEK293T control): 467.377
HEK293T_AUC ([14]; area under the dose-response curve, HEK293T control cells; AUC<450 = reduced viability): 467.377
Control-MCC ([15]; NPC library, Control AUC minus MCC AUC (therapeutic window)): 55.5673

O=c1cc(-c2ccc(O)cc2)oc2cc(O)cc(O)c12 [Apigenin]
MCC13_AUC [1, 27]: 501.623
Area under the dose-response curve (AUC) MCC13 Replicate 1 ([1]; follow-up screen, MCC13, replicate 1): 539.3
Area under the dose-response curve (AUC) MCC13 Replicate 2 ([1]; follow-up screen, MCC13, replicate 2): 539.6
Area under the dose-response curve (AUC) MCC13 Replicate 3 ([1]; follow-up screen, MCC13, replicate 3): 514.9
NIH3T3_AUC [2, 28]: 470.997
Control_Avg_AUC ([3]; MIPE library, sheet S2E): 460.174
Control-VP-MCC ([4]; MIPE library, Control AUC minus VP-MCC AUC (therapeutic window), sheet S2E): 92.024
VP-MCC_Avg_AUC ([4]; MIPE library, sheet S2E): 368.15
UISO_AUC [5, 27]: 485.478
Area under the dose-response curve (AUC) UISO Replicate 1 ([5]; follow-up screen, UISO, replicate 1): 472.2
Area under the dose-response curve (AUC) UISO Replicate 2 ([5]; follow-up screen, UISO, replicate 2): 489.3
Area under the dose-response curve (AUC) UISO Replicate 3 ([5]; follow-up screen, UISO, replicate 3): 503.1
HACAT_AUC [6, 28]: 470.945
MCC26_AUC [7, 27]: 531.61
Area under the dose-response curve (AUC) MCC26 Replicate 1 ([7]; follow-up screen; MCC26; replicate 1): 480.1
Area under the dose-response curve (AUC) MCC26 Replicate 2 ([7]; follow-up screen; MCC26; replicate 2): 461.0
Area under the dose-response curve (AUC) MCC26 Replicate 3 ([7]; follow-up screen; MCC26; replicate 3): 496.4
MKL1_AUC [8, 27]: 377.491
Area under the dose-response curve (AUC) MKL-1 Replicate 1 ([8]; follow-up screen, MKL-1, replicate 1): 510.1
Area under the dose-response curve (AUC) MKL-1 Replicate 2 ([8]; follow-up screen, MKL-1, replicate 2): 521.0
Area under the dose-response curve (AUC) MKL-1 Replicate 3 ([8]; follow-up screen, MKL-1, replicate 3): 502.5
Control-VN-MCC ([9]; MIPE library, Control AUC minus VN-MCC AUC (therapeutic window), sheet S2E): -46.0631
VN-MCC_Avg_AUC ([9]; MIPE library, sheet S2E): 506.237
MCC_Avg_AUC ([10]; MIPE library, mean AUC of six MCC cell lines, sheet S2E): 437.193
CRL7250_AUC [11, 28]: 438.96
MKL2_AUC [12, 27]: 357.96
Area under the dose-response curve (AUC) MKL-2 Replicate 1 ([12]; follow-up screen, MKL-2, replicate 1): 530.0
Area under the dose-response curve (AUC) MKL-2 Replicate 2 ([12]; follow-up screen, MKL-2, replicate 2): 507.8
Area under the dose-response curve (AUC) MKL-2 Replicate 3 ([12]; follow-up screen, MKL-2, replicate 3): 497.7
WAGA_AUC [13, 27]: 368.999
Area under the dose-response curve (AUC) WAGA Replicate 1 ([13]; follow-up screen, WAGA, replicate 1): 549.1
Area under the dose-response curve (AUC) WAGA Replicate 2 ([13]; follow-up screen, WAGA, replicate 2): 497.7
Area under the dose-response curve (AUC) WAGA Replicate 3 ([13]; follow-up screen, WAGA, replicate 3): 481.5
HEK293T_AUC [14, 28]: 459.794
Control-MCC ([15]; MIPE library, Control AUC minus MCC AUC (therapeutic window), sheet S2E): 22.9804
